Molecular target: human TMEM16A (TMEM16Aabc variant) (Homo sapiens, UniProt Q5XXA6, DEL476-501, form not given)
Experiment: Automated whole-cell patch clamp (Qpatch) TMEM16A potentiator assay in FRT cells stably expressing human TMEM16A
Assay type: cell-based
Details: for % Potentiation @ 3.33 μM Avg: 3.33 μM solution of test compound, percentage increase of baseline TMEM16A current; for EC50: calculated EC50, Qpatch TMEM16A current at +70 mV
Source text: FIG. 1 is an example trace from a whole-cell patch clamp (Qpatch) TMEM16A potentiator assay as used in Biological Example 95 and illustrates the methodology used in the assay. In FIG. 1: S is Saline; V is Vehicle; #1 is Test Compound concentration #1; #2 is Test Compound concentration 2; #3 is Test Compound concentration 3; #4 is Test Compound concentration 4; #5 is Test Compound concentration #5; and R is Reference. The arrow in column V represents the baseline current, IBL. The arrows in each of the columns #1, #2, #3, #4, #5 and R represent I#[1], I#[2], I#[3], I#[4], I#[5] and I[Ref], which are the peak currents during the incubation periods for test compounds concentrations #1 to #5 and the Reference.
Fisher rat thyroid (FRT) cells stably expressing human TMEM16A (TMEM16Aabc variant; Dr Luis Galietta, Insituto Giannina, Italy) were cultured in T-75 flasks in Hams F-12 media with Coon's modification (Sigma) supplemented with 10% (v/v) foetal bovine serum, penicillin-streptomycin (10,000 U/mL/10000 μg/mL), G-418 (750 μg/mL), L-glutamine (2 mM) and sodium bicarbonate solution (7.5% v/v). At ˜90% confluence cells were harvested for experiments by detachment with a 2:1 (v/v) mixture of Detachin (BMS Biotechnology) and 0.25% (w/v) trypsin-EDTA. Cells were diluted to a density of 3.5-4.5×10^6 cells/mL with media consisting of CHO-S-SFM II (Sigma), 25 mM HEPES (Sigma) and Soy bean trypsin inhibitor (Sigma).
FRT-TMEM16A cells were whole-cell patch clamped using an automated planar patch clamp system (Qpatch, Sophion). Briefly, once high resistance (GOhm) seals were established between the cells and the planar recording array the patch was ruptured using suction pulses to establish the whole-cell recording configuration of the patch clamp technique. The assay employed the following solutions (all reagents Sigma): Intracellular solution (mM): N-methyl-D-glucamine 130, CaCl2 18.2, MgCl2 1, HEPES 10, EGTA 10, BAPTA 20, Mg-ATP 2, pH 7.25, 325 mOsm with sucrose.
Extracellular solution (mM): N-methyl-D-glucamine 130, CaCl2 2, MgCl2 1, HEPES 10, pH 7.3, 320 mOsm with sucrose.
The intracellular solution buffers intracellular calcium at levels required to give ˜20% activation of the maximal TMEM16A mediated current (EC20 for calcium ions). Cells were voltage clamped at a holding potential of −70 mV and a combined voltage step (to +70 mV)/ramp (−90 my to +90 mV) was applied at 0.05 Hz. After a period of current stabilisation test compounds, solubilised in 100% (v/v) DMSO and subsequently diluted into extracellular solution, were applied to generate a cumulative concentration response curve. Each concentration of test compound was incubated for 5 minutes before addition of the next concentration. After the final concentration was tested a supramaximal concentration of either a known active positive modulator or the TMEM16A inhibitor, CaCCinhA01 (Del La Fuente et al, 2008) was added to define the upper and lower limits of the assay.
Compound activity was quantified by measuring the increase in current upon compound addition and expressing this as a percentage increase of baseline TMEM16A current level. Percentage increases in current were determined for each concentration and the data plotted as a function of concentration using either the Qpatch software or Graphpad Prism v6.05 providing the concentration which gave 50% of its maximal effect (EC50) and maximum efficacy (percentage of baseline increase).
In FIG. 1, IBL equals baseline current, I[#1] equals the peak current during test compound concentration 1 incubation period and so on.
Peak TMEM16A current at +70 mV was plotted as a function of time over the assay period. Baseline current (IBL) was measured after a period of stabilisation. The increase in current for each compound addition was determined by taking the peak current during the incubation period and subtracting the current from the previous recording period and then expressing this as a percentage of the baseline current. […]

human TMEM16A (TMEM16Aabc variant), sequence (Q5XXA6 with tags, fused parts or gaps DEL476-501): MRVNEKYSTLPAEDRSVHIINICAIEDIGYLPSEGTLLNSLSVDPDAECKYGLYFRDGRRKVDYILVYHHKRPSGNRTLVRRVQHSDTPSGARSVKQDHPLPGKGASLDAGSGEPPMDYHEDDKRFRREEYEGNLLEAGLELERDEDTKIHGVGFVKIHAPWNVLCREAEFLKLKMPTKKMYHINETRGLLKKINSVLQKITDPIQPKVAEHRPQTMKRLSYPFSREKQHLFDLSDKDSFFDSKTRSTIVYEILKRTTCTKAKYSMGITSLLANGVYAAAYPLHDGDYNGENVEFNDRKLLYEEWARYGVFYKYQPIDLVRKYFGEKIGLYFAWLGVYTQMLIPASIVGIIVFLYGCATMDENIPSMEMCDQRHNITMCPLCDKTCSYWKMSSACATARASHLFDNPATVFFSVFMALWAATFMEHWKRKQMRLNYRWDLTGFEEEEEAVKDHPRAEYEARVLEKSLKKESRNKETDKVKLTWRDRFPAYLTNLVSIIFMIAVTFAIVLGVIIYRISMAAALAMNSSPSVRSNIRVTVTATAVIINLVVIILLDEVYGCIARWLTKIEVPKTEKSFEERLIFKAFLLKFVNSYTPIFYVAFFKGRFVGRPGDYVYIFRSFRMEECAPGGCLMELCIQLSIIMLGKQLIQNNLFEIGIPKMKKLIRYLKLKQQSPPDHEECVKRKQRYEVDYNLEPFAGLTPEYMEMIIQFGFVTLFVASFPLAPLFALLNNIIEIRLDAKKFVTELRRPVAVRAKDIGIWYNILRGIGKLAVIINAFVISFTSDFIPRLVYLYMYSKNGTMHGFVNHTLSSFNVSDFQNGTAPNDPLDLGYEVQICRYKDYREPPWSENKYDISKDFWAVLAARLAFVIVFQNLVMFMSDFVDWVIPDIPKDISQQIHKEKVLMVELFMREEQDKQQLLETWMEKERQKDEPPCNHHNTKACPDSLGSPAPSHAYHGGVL

Row | Structure (SMILES) | % Potentiation @ 3.33 μM Avg [%] | EC50 [nM]
1 | CC1(NC(=O)c2cc(NC(=O)Cc3cc(Cl)ccc3O)ccn2)CCC1 [Example 1.6, 4-[[2-(5-Chloro-2-hydroxy-phenyl)acetyl]amino]-N-(1-methylcyclobutyl)pyridine-2-carboxamide] | 255 | 60
2 | CC1(NC(=O)c2cccc(NC(=O)Cc3cc(Cl)ccc3O)c2)CCN(C(=O)OC(C)(C)C)CC1 [Example 8.2, tert-Butyl 4-[[3-[[2-(5-chloro-2-hydroxy-phenyl)acetyl]amino]benzoyl]amino]-4-methyl-piperidine-1-carboxylate] | 169 | 1960
3 | CC(C)(C#N)NC(=O)c1cc(NC(=O)c2cccc(C(F)(F)F)n2)ccn1 [Example 83.16, N-[2-[(1-Cyano-1-methyl-ethyl)carbamoyl]-4-pyridyl]-6-(trifluoromethyl)pyridine-2-carboxamide] | 60 | 
4 | C#CC1(NC(=O)c2cc(NC(=O)Cc3cc(Cl)ccc3O)ccn2)CCCC1 [Example 31.2, 4-[[2-(5-Chloro-2-hydroxy-phenyl)acetyl]amino]-N-(1-ethynylcyclopentyl)pyridine-2-carboxamide] | 110 | 10
5 | CC(C)(C)NC(=O)c1cc(NC(=O)C2Cc3ccccc3C2)ccn1 [Example 23.3, N-tert-Butyl-4-(indane-2-carbonylamino)pyridine-2-carboxamide] | 59 | 470
6 | C#CC(C)(C)NC(=O)c1cc(NC(=O)Cc2cc(F)ccc2F)ccn1 [Example 77, 4-[[2-(2,5-Difluorophenyl)acetyl]amino]-N-(1,1-dimethylprop-2-ynyl)pyridine-2-carboxamide] | 139 | 410
7 | CC(C)(C)NC(=O)c1cccc(NC(=O)Cc2cccc(F)c2O)c1 [Example 2.2, N-tert-Butyl-3-[[2-(3-fluoro-2-hydroxy-phenyl)acetyl]amino]benzamide] | 158 | 1610
8 | O=C(Cc1cc(Cl)ccc1O)Nc1ccnc(C(=O)N[C@@]2(CO)CCOC2)c1 (single isomer, unassigned) [Example 35b, 4-[[2-(5-Chloro-2-hydroxy-phenyl)acetyl]amino]-N-[(3R)-3-(hydroxymethyl)tetrahydrofuran-3-yl]pyridine-2-carboxamide or 4-[[2-(5-chloro-2-hydroxy-phenyl)acetyl]amino]-N-[(3S)-3-(hydroxymethyl)tetrahydrofuran-3-yl]pyridine-2-carboxamide] | 190 | 310
9 | CC(C)(C)NC(=O)c1cc(NC(=O)Cc2ccc(C(C)(C)C)c(O)c2)ccn1 [Example 89, N-tert-Butyl-4-[[2-(4-tert-butyl-3-hydroxy-phenyl)acetyl]amino]pyridine-2-carboxamide] | 366 | 90
10 | CC(=O)Nc1ccc(C(=O)Nc2ccnc(C(=O)NC(C)(C)C#N)c2)cc1 [Example 83.29, 4-[(4-Acetamidobenzoyl)amino]-N-(1-cyano-1-methyl-ethyl)pyridine-2-carboxamide] | -9 | 
11 | CC(C)(C)NC(=O)c1cccc(NC(=O)Cc2cccc(O)c2)c1 [Example 4, N-tert-Butyl-3-[[2-[3-hydroxyphenyl]acetyl]amino]benzamide] | 96 | 1500
12 | CC(C)(C)NC(=O)c1cc(NC(=O)Cc2ccc(C(C)(C)C)c(N)c2)ccn1 [Example 87, 4-[[2-(3-Amino-4-tert-butyl-phenyl)acetyl]amino]-N-tert-butyl-pyridine-2-carboxamide] | 332 | 220
13 | Cc1noc(-c2ccccc2C(=O)Nc2ccnc(C(=O)NC(C)(C)C#N)c2)n1 [Example 83.23, N-(1-Cyano-1-methyl-ethyl)-4-[[2-(3-methyl-1,2,4-oxadiazol-5-yl)benzoyl]amino]pyridine-2-carboxamide] | -11 | 
14 | CC(C)(C)NC(=O)c1cc(NC(=O)Cc2ccc(F)c(F)c2)ccn1 [Example 23.6, N-tert-Butyl-4-[[2-(3,4-difluorophenyl)acetyl]amino]pyridine-2-carboxamide] | 108 | 
15 | CC(C)(C)NC(=O)c1cc(NC(=O)Cc2ccc3ncoc3c2)ccn1 [Example 5.15, 4-[[2-(1,3-Benzoxazol-6-yl)acetyl]amino]-N-tert-butyl-pyridine-2-carboxamide] | 87 | 
16 | CC(CC(=O)Nc1ccnc(C(=O)NC(C)(C)C#N)c1)c1ccc(F)cc1 (centres unmarked) [Example 83.31, N-(1-Cyano-1-methyl-ethyl)-4-[3-(4-fluorophenyl)butanoylamino]pyridine-2-carboxamide] | 78 | 
17 | CC(C)(C)NC(=O)c1cc(NC(=O)NCc2ccccc2)ccn1 [Example 64, 4-(Benzylcarbamoylamino)-N-tert-butyl-pyridine-2-carboxamide] | 55 | 
18 | CC(C)(C)NC(=O)c1cc(NC(=O)C2CCc3ccccc32)ccn1 (centres unmarked) [Example 5.22, N-tert-Butyl-4-(indane-1-carbonylamino)pyridine-2-carboxamide] | 94 | 
19 | CC(C)(C)NC(=O)c1cc(NC(=O)C2CCCc3ccccc32)ccn1 (centres unmarked) [Example 5.27, N-tert-Butyl-4-(tetralin-1-carbonylamino) pyridine-2-carboxamide] | 84 | 
20 | CC(C)(C#N)NC(=O)c1cc(NC(=O)Cc2cc(F)ccc2O)ccn1 [Example 81, N-(1-Cyano-1-methyl-ethyl)-4-[[2-(5-fluoro-2-hydroxy-phenyl)acetyl]amino] pyridine-2-carboxamide] | 151 | 370
21 | CC(C)(C)NC(=O)c1cc(NC(=O)Cc2c(O)c(Br)cc(Cl)c2Br)ccn1 [Example 3.11b, N-tert-Butyl-4-[[2-(2,5-dibromo-3-chloro-6-hydroxy-phenyl)acetyl]amino]pyridine-2-carboxamide] | 168 | 410
22 | O=C(Cc1cc(Cl)ccc1O)Nc1ccnc(C(=O)NC2(CO)CCOC2)c1 (racemic) [Example 35, 4-[[2-(5-Chloro-2-hydroxy-phenyl)acetyl]amino]-N-[3-(hydroxymethyl)tetrahydrofuran-3-yl]pyridine-2-carboxamide] | 180 | 190
23 | C#CC(C)(C)NC(=O)c1cc(NC(=O)CN2CCOc3ccccc32)ccn1 [Example 5.39, 4-[[2-(2,3-Dihydro-1,4-benzoxazin-4-yl)acetyl]amino]-N-(1,1-dimethylprop-2-ynyl)pyridine-2-carboxamide] | 147 | 
24 | CC1(NC(=O)c2cc(NC(=O)Cc3cc(F)ccc3O)ccn2)CCC1 [Example 48, 4-[[2-(5-Fluoro-2-hydroxy-phenyl)acetyl]amino]-N-(1-methylcyclobutyl)pyridine-2-carboxamide] | 195 | 100
25 | CC(C)(C)NC(=O)c1cc(NC(=O)NCCc2ccccc2)ccn1 [Example 64.2, N-tert-Butyl-4-(2-phenylethylcarbamoylamino)pyridine-2-carboxamide] | 61 | 
26 | C#CC(C)(C)NC(=O)c1cccc(NC(=O)Cc2cc(F)ccc2O)c1 [Example 35.21, N-(1,1-Dimethylprop-2-ynyl)-3-[[2-(5-fluoro-2-hydroxy-phenyl)acetyl]amino]benzamide] | 200 | 410

From patent US20200361871A1 (Enterprise Therapeutics Ltd., priority 2018, published 2020)
